From US20240122179A1, “AUXINIC HERBICIDES AND METHODS OF USE THEREOF” (CORTEVA AGRISCIENCE LLC, priority 2021, published 2024)
Read-outs that look alike come from different tables or passages of the source.

Legend:
[1] = Volatility of compounds measured by thermogravimetric analysis (TGA), rate of weight loss; assay type: physicochemical; settings: estimates of volatility
Text: Briefly, the rate of weight loss measured in units of […]g/min can be used to determine vapor pressure as shown by the simplified equation: wherein, k is the intrinsic volatility and A is the surface area, Referring now to FIG. 2. A graph of weight loss as function of time for solid samples produces a linear curve; the slope of the curve is the rate of weight loss. When this method is used to measure the volatility of aqueous salt concentrates or liquid concentrates, the water or acetone present in the sample volatilizes before the sample of interest. The first linear loss region of the curve is the loss of water or acetone and the second linear region is characteristic of the sample of interest. In order to illustrate the difference in volatility between some of the compounds disclosed herein and the widely used herbicide dicamba, data from both the compounds and dicamba are presented Table 3 and in FIG. 1.

[2] = tested on: Conyza canadensis (L.) (ERICA); experiment: Postemergence herbicide evaluation, percent reduction in plant size vs untreated control, 21 days after treatment; assay type: in vivo, Conyza canadensis (L.) (Horseweed); settings: Erigeron canadensis, post-emergence, 504 h, ERICA, postemergence, read-out: Control/Injury; for pest or weed control at 140 g/ha: rate 140 g ae/ha; for pest or weed control at 280 g/ha: rate 280 g ae/ha
Method in brief: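 Track-sprayer applications (187 L/ha, 276 kPa) of 140 or 280 g ae/ha, technical material dissolved in acetone/DMSO then diluted with crop oil and surfactant-containing solvent, to greenhouse Conyza canadensis at 2-8 leaves. After 21 days, size reduction relative to untreated plants was recorded; 3-4 randomized replicates.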

Kochia scoparia (KCHSC) = experiment: as above; assay type: in vivo; settings: KCHSC, postemergence; for pest or weed control at 140 g/ha / pest or weed control at 280 g/ha: Bassia scoparia, post-emergence, 504 h, read-out: Control/Injury; for pest or weed control at 280 g/ha: rate 280 g ae/ha
Method in brief: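 Values are percent reduction in plant size against an untreated control, measured 21 days after a single postemergence spray at 140 or 280 g ae/ha (187 L/ha, 276 kPa). Treatments used 3-4 randomized complete-block replicates on 2 to 8 leaf-stage plants kept in a 25-28 °C greenhouse, with compounds in acetone/DMSO-based solvent containing crop oil and surfactant.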

[3] = tested on: Ambrosia artemisiifolia (AMBEL); experiment: as above; assay type: in vivo, Ambrosia artemisiifolia (common ragweed); settings: post-emergence, 504 h, AMBEL, postemergence, read-out: Control/Injury; for pest or weed control at 140 g/ha: rate 140 g ae/ha; for pest or weed control at 280 g/ha: rate 280 g ae/ha
Method in brief: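 Test compounds at 140 or 280 g ae/ha were applied by track sprayer (187 L/ha, spray solution containing acetone/DMSO, isopropanol, crop oil, surfactant) to 2–8 leaf plants, 3–4 replicates. Plants were kept in a greenhouse at 25–28 °C. Size reduction was scored against untreated controls at 21 days.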

[4] = tested on: Amaranthus palmeri (AMAPA); experiment: as above; assay type: in vivo, Amaranthus palmeri (Palmer amaranth); settings: post-emergence, 504 h, postemergence, read-out: Control/Injury; for pest or weed control at 140 g/ha: rate 140 g ae/ha; for pest or weed control at 280 g/ha: rate 280 g ae/ha
Method in brief: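 Percent reduction in plant size relative to untreated plants, measured 21 days after track-sprayer application (187 L/ha) of 140 or 280 g ae/ha to Amaranthus palmeri at the 2 to 8 leaf stage. Randomized complete block, 3 or 4 replicates, greenhouse at 25 to 28° C; spray solution acetone/DMSO with isopropanol, water and crop oil concentrate.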

Amaranthus rudis (AMATA) = experiment: as above; assay type: in vivo, Amaranthus rudis (tall water hemp); settings: Amaranthus tuberculatus, post-emergence, 504 h, AMATA, postemergence, read-out: Control/Injury; for pest or weed control at 140 g/ha: rate 140 g ae/ha; for pest or weed control at 280 g/ha: rate 280 g ae/ha
Method in brief: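 Growth-reduction values are percent decrease in plant size relative to untreated plants, scored 21 days post-application. Amaranthus rudis (2-8 leaves) received postemergence sprays at 140 or 280 g ae/ha, 187 L/ha, in a mixed acetone/DMSO/water/isopropanol carrier with crop oil concentrate. Greenhouse conditions were 25-28° C, 50-60% RH; 3-4 randomized replicates.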

[5] = percent reduction vs untreated control, 21 days after treatment
[6] = R-AMAPA, percent reduction vs untreated control, 21 days after treatment
[7] = percent reduction vs untreated, 21 days after treatment
[8] = rate 140 g ae/ha, percent reduction vs untreated, 21 days after treatment

SMILES	Volatility [1] [ng/min]	pest or weed control at 140 g/ha [2, 5] [%]	pest or weed control at 280 g/ha [2, 5] [%]	pest or weed control at 140 g/ha (Kochia scoparia (KCHSC); rate 140 g ae/ha) [%]	pest or weed control at 280 g/ha (Kochia scoparia (KCHSC)) [%]	pest or weed control at 140 g/ha [3] [%]	pest or weed control at 280 g/ha [3] [%]	pest or weed control at 140 g/ha [4, 6] [%]	pest or weed control at 280 g/ha [4, 6] [%]	pest or weed control at 140 g/ha (Amaranthus rudis (AMATA)) [%]	pest or weed control at 280 g/ha (Amaranthus rudis (AMATA)) [%]	pest or weed control at 140 g/ha [2, 7] [%]	pest or weed control at 280 g/ha [2, 7] [%]	pest or weed control at 140 g/ha (Kochia scoparia (KCHSC); [8]) [%]	pest or weed control at 280 g/ha (Kochia scoparia (KCHSC); [7]) [%]	pest or weed control at 140 g/ha ([4]; AMAPA) [%]	pest or weed control at 280 g/ha ([4]; AMAPA) [%]	pest or weed control at 140 g/ha [2] [%]	pest or weed control at 280 g/ha [2] [%]	Control/Injury (Kochia scoparia (KCHSC); rate 140 g ae/ha)
COc1c(Cl)ccc(Cl)c1C(=O)O/N=C(\N)c1ccccc1 [Compound A-49]	0.08	95	98	82	100	98	99	95	100											
COc1c(Cl)ccc(Cl)c1C(=O)O/N=C(/C)N [Compound A-136]	0.086					87	96			68	74	94	99	76	94	85	90			
COc1c(Cl)ccc(Cl)c1C(=O)N(C)OC [Compound A-129]	13.4					10	15			20	23			0	5	8	20	38	0	
COc1c(Cl)ccc(Cl)c1C(=O)Nc1ccnn1C [Compound A-134]	0.01					33	30			15	8		10	0	0	15	15	5		
COc1c(Cl)ccc(Cl)c1C(=O)NOCc1ccccc1 [Compound A-98]	0.08					20	15			18	13			8	0	23	20	2	3	
COc1c(Cl)ccc(Cl)c1C(=O)Oc1cc2ccccc2n1C [Compound A-117]	0.04					90	97			85	85	98	95	80	98	83	89			
COc1c(Cl)ccc(Cl)c1C(=O)O/N=C(\N)C(C)C [Compound A-48]	0.38			90	100	85	100	90	99	60	90									
COc1c(Cl)ccc(Cl)c1C(=O)O/N=C(\N)c1ccc(C)cc1 [Compound A-17]	0.026	94	95																	
COc1c(Cl)ccc(Cl)c1C(=O)O/N=C(\N)c1ccccc1 [Compound A-150]	0.08											95	98	88	99	80	78	98	97	
COc1c(Cl)ccc(Cl)c1C(=O)OCCOCCOC(=O)c1c(Cl)ccc(Cl)c1OC [Compound A-55]	0.24				15	25														
COc1c(Cl)ccc(Cl)c1C(=O)O/N=C(\N)c1cncnc1 [Compound A-35]	0.022	96	99																	
COc1c(Cl)ccc(Cl)c1C(=O)O/N=C(\N)C1CCCCC1 [Compound A-6]	0.064	98	98																	
COc1c(Cl)ccc(Cl)c1C(=O)O/N=C(\N)c1ccncc1 [Compound A-33]	0.015	87	93																	
COc1c(Cl)ccc(Cl)c1C(=O)OCOC(=O)c1c(Cl)ccc(Cl)c1OC [Compound A-53]	0.19			85	90	60	70	70	98											85
COc1c(Cl)ccc(Cl)c1C(=O)OCOC(=O)c1ccccc1 [Compound A-51]	0.25			92	99	90	95	95	95											
COc1c(Cl)ccc(Cl)c1C(=O)O/N=C(\N)c1ccco1 [Compound A-38]	0.46	89	97																	
COc1c(Cl)ccc(Cl)c1C(=O)O/N=C(\N)c1cccnc1 [Compound A-50]	0.09			99	99	90	100	95	99	95	97									
COc1c(Cl)ccc(Cl)c1C(=O)O/N=C(\N)c1ccccn1 [Compound A-34]	0.039	87	97																	
COc1c(Cl)ccc(Cl)c1C(=O)O/N=C(\C)c1ccccc1 [Compound A-46]	0.1			99	100	85	82	85	80											
